Values belong to the molecule of their own block, whether it stands above or below them.
Columns and labels:
[1] = Plasma protein binding in rat after 15 mins; type: ADME, cell-free; details: read-out: PPB (converted)
[2] = Half life in rat plasma by HPLC analysis; type: ADME, cell-free
[3] = Octanol-phosphate buffered saline partition coefficient, log D of the compound at pH 7.4 by shake-flask method; type: physicochemical
[4] = system: Brain; assay: Biodistribution in Sprague-Dawley rat brain assessed as drug level per body weight at 230 to 876 uCi, iv after 60 mins by PET imaging analysis; type: ADME, organism-based; details: in vivo, 1 h
[5] = system: Hippocampus; assay: Biodistribution in rat hippocampus after 65 mins by autoradiography; type: ADME, organism-based; details: in vivo
[6] = system: Kidney; assay: Biodistribution in Sprague-Dawley rat kidney assessed as drug level per body weight at 230 to 876 uCi, iv after 60 mins by PET imaging analysis; type: ADME, organism-based; details: in vivo, 1 h
[7] = system: Cortex; assay: Biodistribution in rat cortex after 65 mins by autoradiography relative to control in presence of 7,8-dihydroxyflavone; type: ADME, organism-based; details: in vivo
[8] = system: Rattus norvegicus; assay: Biodistribution in Sprague-Dawley rat whole brain assessed as drug level per body weight at 230 to 876 uCi, iv after 30 mins by PET imaging analysis; type: ADME, organism-based; details: in vivo, 0.5 h
[9] = system: Thalamus; assay: Biodistribution in rat thalamus after 65 mins by autoradiography relative to control in presence of 7,8-dihydroxyflavone; type: ADME, organism-based; details: in vivo
[10] = system: Cerebellum; assay: Biodistribution in rat cerebellum after 65 mins by autoradiography relative to control in presence of 7,8-dihydroxyflavone; type: ADME, organism-based; details: in vivo
[11] = system: Cortex; assay: Biodistribution in rat cortex after 65 mins by autoradiography relative to control in presence of BDNF; type: ADME, organism-based; details: in vivo
[12] = system: Thalamus; assay: Biodistribution in rat thalamus after 65 mins by autoradiography; type: ADME, organism-based; details: in vivo
[13] = Drug degradation in rat plasma after 90 mins by HPLC analysis; type: ADME, cell-free; details: read-out: Drug degradation
[14] = system: Aorta; assay: Biodistribution in Sprague-Dawley rat aorta assessed as drug level per body weight at 230 to 876 uCi, iv after 30 mins by PET imaging analysis; type: ADME, organism-based; details: in vivo, 0.5 h
[15] = system: Hippocampus; assay: Biodistribution in rat hippocampus after 65 mins by autoradiography relative to control in presence of BDNF; type: ADME, organism-based; details: in vivo
[16] = system: Striatum; assay: Biodistribution in rat striatum after 65 mins by autoradiography relative to control in presence of BDNF; type: ADME, organism-based; details: in vivo
[17] = system: Thalamus; assay: Biodistribution in rat thalamus after 65 mins by autoradiography relative to control in presence of BDNF; type: ADME, organism-based; details: in vivo
[18] = system: Cerebellum; assay: Biodistribution in rat cerebellum after 65 mins by autoradiography relative to control in presence of BDNF; type: ADME, organism-based; details: in vivo
[19] = system: Cerebral cortex; assay: Biodistribution in rat cerebral cortex after 65 mins by autoradiography; type: ADME, organism-based; details: in vivo
[20] = system: Liver; assay: Biodistribution in Sprague-Dawley rat liver assessed as drug level per body weight at 230 to 876 uCi, iv after 120 mins by PET imaging analysis; type: ADME, organism-based; details: in vivo, 2 h
[21] = system: Hippocampus; assay: Biodistribution in rat hippocampus after 65 mins by autoradiography relative to control in presence of 7,8-dihydroxyflavone; type: ADME, organism-based; details: in vivo
[22] = system: Striatum; assay: Biodistribution in rat striatum after 65 mins by autoradiography relative to control in presence of 7,8-dihydroxyflavone; type: ADME, organism-based; details: in vivo
[23] = species on record: Rattus norvegicus; assay: Biodistribution in rat caudate putamen after 65 mins by autoradiography; type: ADME, organism-based; details: in vivo
[24] = system: Cerebellum; assay: Biodistribution in rat cerebellum after 65 mins by autoradiography; type: ADME, organism-based; details: in vivo
[25] = target: BDNF/NT-3 growth factors receptor (Homo sapiens, UniProt Q16620); assay: Binding affinity to TrkB receptor extracellular domain (unknown origin) after 10 mins by liquid Scatchard plot analysis
BDNF/NT-3 growth factors receptor, sequence (Q16620 whole entry, the tested form may be a part): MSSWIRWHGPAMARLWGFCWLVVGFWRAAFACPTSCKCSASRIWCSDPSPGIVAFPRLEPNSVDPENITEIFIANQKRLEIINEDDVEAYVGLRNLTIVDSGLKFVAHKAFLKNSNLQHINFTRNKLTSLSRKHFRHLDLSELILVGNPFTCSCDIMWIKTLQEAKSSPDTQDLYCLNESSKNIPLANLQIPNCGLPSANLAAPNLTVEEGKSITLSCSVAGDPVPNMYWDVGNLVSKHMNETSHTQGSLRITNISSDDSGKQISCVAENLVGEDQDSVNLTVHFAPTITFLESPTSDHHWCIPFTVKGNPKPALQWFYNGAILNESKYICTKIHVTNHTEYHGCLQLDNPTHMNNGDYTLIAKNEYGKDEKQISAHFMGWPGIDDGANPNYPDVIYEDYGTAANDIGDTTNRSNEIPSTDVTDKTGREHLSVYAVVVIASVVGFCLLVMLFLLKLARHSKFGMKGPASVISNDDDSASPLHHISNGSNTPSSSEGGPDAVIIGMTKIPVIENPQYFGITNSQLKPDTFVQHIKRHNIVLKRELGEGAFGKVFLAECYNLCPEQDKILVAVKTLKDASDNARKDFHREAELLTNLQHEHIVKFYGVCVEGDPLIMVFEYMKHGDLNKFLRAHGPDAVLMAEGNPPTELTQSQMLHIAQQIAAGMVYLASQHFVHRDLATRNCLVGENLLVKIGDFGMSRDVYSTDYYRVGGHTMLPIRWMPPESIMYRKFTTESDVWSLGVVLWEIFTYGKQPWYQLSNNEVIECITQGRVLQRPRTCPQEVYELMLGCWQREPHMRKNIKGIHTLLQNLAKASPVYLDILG

- fraction unbound at 0.25 h [1]: 0.81
- half-life [2]: 10 min
- logD [3]: 2.8
SMILES: CN([11CH3])c1ccc(-c2cc(=O)c3ccc(O)c(O)c3o2)cc1
- SUV [4]: 0.7

- Drug uptake [5]: Active
- Drug uptake [7]: 17%
- fraction unbound at 0.25 h [1]: 0.76
- Drug uptake [9]: 19%
- Drug uptake [10]: 23%
- Drug uptake [11]: 16%
- Drug uptake [12]: Active
- metabolised at 1.5 h [13]: 10%
- logD [3]: 2.2
- Drug uptake [15]: 10%
- Drug uptake [16]: 14%
- Drug uptake [17]: 11%
- Drug uptake [18]: 12%
- Drug uptake [19]: Active
- Drug uptake [21]: 18%
- Drug uptake [22]: 21%
- Drug uptake [23]: Active
- Drug uptake [24]: Active
SMILES: O=c1cc(-c2ccc([18F])cc2)oc2c(O)c(O)ccc12
- SUV [6]: 4.38
- SUV [8]: 0.64
- SUV [14]: 6.62
- SUV [20]: 6.8

- Kd [25]: 320 nM
SMILES: O=c1cc(-c2ccccc2)oc2c(O)c(O)ccc12 [7,8-DIHYDROXYFLAVONE]
